Biological target: T1, hNLRP3 (Homo sapiens, UniProt Q96P20)
T1 construct: THP-1 cells were purchased from the American Type Culture Collection; host or cells: THP-1 cells, PMA-differentiated
Assay: Measurement of IL-1β production in PMA-differentiated THP-1 cells (hNLRP3 agonist; ELISA, alternative and hTRF procedures)
Type: cell-based
Experimental: Measurement of IL-1β production in PMA-differentiated THP-1 cells THP-1 cells were purchased from the American Type Culture Collection and sub-cultured according to instructions from the supplier. Prior to experiments, cells were cultured in RPMI 1640 containing 10% heat inactivated FBS, penicillin (100 units/ml) and streptomycin (100 μg/ml), and maintained in log phase prior to experimental setup. Prior to the experiment THP-1 were treated with PMA (Phorbol 12-myristate 13-acetate) ([…]) for 24 hours. The day of the experiment the media was removed and attaching cells were treated with trypsin for 2 minutes, cells were then collected, washed with PBS (phosphate buffer saline), spin down, resuspended in 2% heat inactivated FBS with RPMI at a concentration of 1×10^6 cells/ml, and 100 μl was plated in a 96 well plate. Compounds were dissolved in dimethyl sulfoxide (DMSO) and added to the culture medium to achieve desired concentration (e.g. 100, 30, 10, 3, 1, 0.3 or 0.1 μM). Cells were incubated with compounds for 4 hours. Cell free supernatant was collected and the production of […] was evaluated by ELISA. A vehicle only control was run concurrently with each experiment. Final DMSO concentration was 1%.
Measurement of IL-1β Production in PMA-Differentiated THP-1 Cells (Alternative Procedure)
THP-1 cells were purchased from the American Type Culture Collection and sub-cultured according to instructions from the supplier. Prior to experiments, cells were cultured in RPMI 1640 containing 10% heat inactivated FBS, penicillin (100 units/ml), streptomycin (100 μg/ml), HEPES (10 mM) and sodium pyruvate (1 mM) and maintained in log phase prior to experimental setup. Prior to the experiment, THP-1 cells were treated with PMA (Phorbol 12-myristate 13-acetate) (20 μg/ml) overnight. The day of the experiment, the media was removed and attached cells were treated with trypsin for 2 minutes, cells were then collected, washed with PBS (phosphate buffer saline), pelleted by centrifugation and resuspended in 2% heat inactivated FBS with RPMI at a concentration of 50,000 cells/well in a 384 well plate. Cell free supernatant was collected and the production of IL-1β was evaluated by ELISA. Compounds were dissolved in dimethyl sulfoxide (DMSO) and added to the culture medium to achieve desired concentration (e.g. 100, 30, 10, 3, 1, 0.3 or 0.1 μM). Cells were incubated with compounds for 2 hours. A vehicle only control was run concurrently with each experiment. Final DMSO concentration was 1%.
Measurement of IL-1β Production—hTRF Protocol (Second Alternative Procedure)
Serial dilutions of compounds in DMSO were added to low volume 384 well plates at 100 nl/well using an ECHO 550 acoustic dispenser (Labcyte) to achieve final starting concentration of 10 μM in assay.
THP-1 cells in RPMI (Gibco, 11875) media with 10% FBS at a density of 1×10^6 cell/ml in a T175 flask were treated with a final concentration of phorbol 12-myristate 13-acetate (PMA) (Sigma, P1585) of 50 ng/ml overnight at 37° C. at 5% CO2 for differentiation. Cells were harvested the next day after rinsing well with dPBS using 0.5% trypsin. A cell solution was prepared of 1×10^6 cells/ml for 50,000 cells in 50 μl/well in RPMI media with 2% FBS. Cells were plated using a multichannel pipette onto the compound dilutions in Greiner, 384 well, black clear bottom tissue culture treated plates (781090). The plates were incubated in 37° C. incubator at 5% CO2 for 2 hours.
After the 2 hour incubation, the cell plates were spun in the centrifuge for 5 minutes at 1200 rpm. Using the Felix (CyBio), 8 μl of the supernatant was transferred to 384 well, low volume, white proxy plates. (Perkin Elmer, 6008230). A human IL1beta hTRF kit was used to analyze the supernatant (CISBIO, 62HIL1BPEG). The kit instructions were followed for preparing the IL1Beta standard curve and then the antibodies from the kit were diluted 1:40 rather than 1:20 as kit instructed.

T1 sequence (Q96P20 whole entry): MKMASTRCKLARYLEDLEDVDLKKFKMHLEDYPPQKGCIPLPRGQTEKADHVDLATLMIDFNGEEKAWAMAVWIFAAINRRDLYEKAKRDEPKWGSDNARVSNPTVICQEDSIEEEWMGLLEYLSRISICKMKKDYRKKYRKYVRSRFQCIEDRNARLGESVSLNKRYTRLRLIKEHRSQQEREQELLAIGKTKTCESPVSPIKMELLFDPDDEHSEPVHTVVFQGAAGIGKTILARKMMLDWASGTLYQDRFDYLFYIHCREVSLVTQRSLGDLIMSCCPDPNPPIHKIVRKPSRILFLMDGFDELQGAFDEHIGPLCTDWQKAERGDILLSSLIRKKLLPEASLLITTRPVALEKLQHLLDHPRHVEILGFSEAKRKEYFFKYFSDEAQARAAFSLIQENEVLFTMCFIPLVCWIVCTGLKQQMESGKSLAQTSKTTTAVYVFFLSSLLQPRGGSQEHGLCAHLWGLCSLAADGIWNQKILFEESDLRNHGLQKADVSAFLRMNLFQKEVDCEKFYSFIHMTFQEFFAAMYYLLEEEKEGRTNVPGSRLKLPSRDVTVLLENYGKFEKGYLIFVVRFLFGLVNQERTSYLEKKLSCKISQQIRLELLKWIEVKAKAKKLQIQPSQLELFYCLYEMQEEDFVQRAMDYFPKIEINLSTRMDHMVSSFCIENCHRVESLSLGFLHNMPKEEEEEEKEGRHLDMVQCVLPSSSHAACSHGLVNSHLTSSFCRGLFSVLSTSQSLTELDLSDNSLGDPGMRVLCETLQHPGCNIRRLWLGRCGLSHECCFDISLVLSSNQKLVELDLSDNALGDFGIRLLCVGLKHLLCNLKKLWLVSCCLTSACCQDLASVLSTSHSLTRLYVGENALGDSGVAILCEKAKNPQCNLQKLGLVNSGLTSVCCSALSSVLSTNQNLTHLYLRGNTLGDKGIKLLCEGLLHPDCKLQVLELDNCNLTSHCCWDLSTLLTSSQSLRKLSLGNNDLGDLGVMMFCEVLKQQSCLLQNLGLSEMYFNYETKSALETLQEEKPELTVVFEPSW

Row | SMILES | EC50
1 | Cc1ccc(-c2ccc3c(c2)nc(N)c2nc(CN4CCCC4=O)[nH]c23)cc1 [Compound 291, 1-[[4-amino-7-(4-methylphenyl)-1H-imidazo[4,5-c]quinolin-2-yl]methyl]pyrrolidin-2-one] | 0.11 µM
2 | CCN(Cc1nc2c(N)nc3ccc(Br)cc3c2[nH]1)S(=O)(=O)c1ccc(C)cc1 [Compound 202] | 35.9 µM
3 | CCN(Cc1nc2c(N)nc3cc(Cl)ccc3c2n1CCCC(=O)OC)C(C)=O [Compound 219] | 2 µM
4 | Nc1nc2cc(Br)ccc2c2[nH]c(CN3CCCC3=O)nc12 [Compound 294, 1-[(4-amino-7-bromo-1H-imidazo[4,5-c]quinolin-2-yl)methyl]pyrrolidin-2-one] | 4.6 µM
5 | CCN(Cc1nc2c(N)nc3cc(Br)ccc3c2n1CCCC(=O)N(C)C)C(C)=O [Compound 213] | 17.6 µM
6 | Cc1ccccc1-c1ccc2c(c1)nc(N)c1nc(CN3CCCC3=O)[nH]c12 [Compound 282, 1-[[4-amino-7-(2-methylphenyl)-1H-imidazo[4,5-c]quinolin-2-yl]methyl]pyrrolidin-2-one] | 4.8 µM
7 | CCN(Cc1nc2c(N)nc3cc(Br)ccc3c2n1CCCC(=O)OC)C(C)=O [Compound 218] | 1.2 µM
8 | CCNCc1nc2c(N)nc3cc(-c4cc[nH]n4)ccc3c2n1C [Compound 106, 2-((Ethylamino)methyl)-1-methyl-7-(1H-pyrazol-3-yl)-1H-imidazo[4,5-c]quinolin-4-amine] | 0.7 µM
9 | Nc1nc2cc(-c3ccccc3Cl)ccc2c2[nH]c(CN3CCCC3=O)nc12 [Compound 281, 1-[[4-amino-7-(2-chlorophenyl)-1H-imidazo[4,5-c]quinolin-2-yl]methyl]pyrrolidin-2-one] | 1.4 µM
10 | N#Cc1cccc(-c2ccc3c(c2)nc(N)c2nc(CN4CCCC4=O)[nH]c23)c1 [Compound 288, 3-[4-amino-2-[(2-oxopyrrolidin-l-yl)methyl]-1H-imidazo[4,5-c]quinolin-7-yl]benzonitrile] | 10.1 µM
11 | CCN(Cc1nc2c(N)nc3cc(Br)ccc3c2n1CCCC(=O)N1CCOCC1)C(C)=O [Compound 214] | 51.5 µM
12 | CCCn1cc(-c2ccc3c(c2)nc(N)c2nc(CN(CC)C(C)=O)[nH]c23)cn1 [Compound 169, N-[[4-amino-7-(1-propylpyrazol-4-yl)-1H-imidazo[4,5-c]quinolin-2-yl]methyl]-N-ethylacetamide] | 92 µM
13 | CCN(Cc1nc2c(N)nc3ccccc3c2[nH]1)C(C)=O [Compound 176] | 25.7 µM
14 | CCN(Cc1nc2c(N)nc3cc(Br)ccc3c2n1CCCC(=O)NC)C(C)=O [Compound 210] | 61 µM
15 | Cc1cnn(-c2ccc3c(c2)nc(N)c2nc(CN4CCCC4=O)[nH]c23)c1 [Compound 296, 1-[[4-amino-7-(4-methylpyrazol-1-yl)-1H-imidazo[4,5-c]quinolin-2-yl]methyl]pyrrolidin-2-one] | 5.1 µM
16 | CCN(Cc1nc2c(N)nc3cc(N4CCNC4=O)ccc3c2n1Cc1ccc(OC)cc1)C(C)=O [Compound 196] | 32.7 µM
17 | CCN(Cc1nc2c(N)nc3ccc(Br)cc3c2[nH]1)C(=O)C(C)C [Compound 203] | 10.8 µM
18 | CCN(Cc1nc2c(N)nc3ccccc3c2n1CCC(=O)N1CCN(C(=O)OC(C)(C)C)CC1)C(=O)OC(C)(C)C [Compound 211] | 40 µM
19 | Nc1nc2cc(-c3cccnc3)ccc2c2[nH]c(CN3CCCC3=O)nc12 [Compound 279, 1-[(4-amino-7-pyridin-3-yl-1H-imidazo[4,5-c]quinolin-2-yl)methyl]pyrrolidin-2-one] | 7.5 µM
20 | CCN(Cc1nc2c(N)nc3ccc(Br)cc3c2[nH]1)C(=O)c1ccccc1 [Compound 204] | 6.7 µM
21 | CCN(Cc1nc2c(N)nc3cc(C(F)(F)F)ccc3c2n1CCCC(=O)N1CCOCC1)C(=O)OC(C)(C)C [Compound 228] | 93 µM
22 | Nc1nc2cc(C3CCCCC3)ccc2c2[nH]c(CN3CCCC3=O)nc12 [Compound 302, 1-[(4-amino-7-cyclohexyl-1H-imidazo[4,5-c]quinolin-2-yl)methyl]pyrrolidin-2-one] | 0.93 µM

Row | SMILES | EC50
23 | COC(=O)CCCn1c(CN(C)C(C)=O)nc2c(N)nc3ccccc3c21 [Compound 188] | 5.7 µM
24 | Nc1nc2cc(-c3ccccc3F)ccc2c2[nH]c(CN3CCCC3=O)nc12 [Compound 284, 1-[[4-amino-7-(2-fluorophenyl)-1H-imidazo[4,5-c]quinolin-2-yl]methyl]pyrrolidin-2-one] | 0.86 µM
25 | CCN(Cc1nc2c(N)nc3ccccc3c2n1CCCNC(=O)OC(C)(C)C)C(C)=O [Compound 191] | 65 µM
26 | CCN(Cc1nc2c(N)nc3cc(Br)ccc3c2n1CCCC(=O)N1CCN(C)CC1)C(C)=O [Compound 209] | 22 µM
27 | CCNCc1nc2c(N)nc3cc(C(F)(F)F)ccc3c2n1CCCC(=O)OC [Compound 227] | 22.7 µM
28 | CC(=O)NCc1nc2c(N)nc3ccccc3c2[nH]1 [Compound 233] | 120 µM
29 | CCN(Cc1nc2c(N)nc3cc(-n4cccn4)ccc3c2[nH]1)C(C)=O [Compound 180, N-[(4-amino-7-pyrazol-1-yl-1H-imidazo[4,5-c]quinolin-2-yl)methyl]-N-ethylacetamide] | 1.5 µM
30 | CCN(Cc1nc2c(N)nc3cc(-c4cc[nH]n4)ccc3c2[nH]1)C(=O)N(C)C [Compound 110, 1-((4-Amino-7-(1H-pyrazol-3-yl)-1H-imidazo[4,5-c]quinolin-2-yl)methyl)-1-ethyl-3,3-dimethylurea] | 0.9 µM
31 | CCN(Cc1nc2c(N)nc3cc(Br)ccc3c2[nH]1)C(C)=O [Compound 177] | 7.4 µM
32 | CC(=O)N(C)Cc1nc2c(N)nc3ccccc3c2[nH]1 [Compound 187] | 64 µM
33 | Cc1ccn(-c2ccc3c(c2)nc(N)c2nc(CN4CCCC4=O)[nH]c23)n1 [Compound 301, 1-[[4-amino-7-(3-methylpyrazol-1-yl)-1H-imidazo[4,5-c]quinolin-2-yl]methyl]pyrrolidin-2-one] | 2.93 µM
34 | COc1ccccc1-c1ccc2c(c1)nc(N)c1nc(CN3CCCC3=O)[nH]c12 [Compound 283, 1-[[4-amino-7-(2-methoxyphenyl)-1H-imidazo[4,5-c]quinolin-2-yl]methyl]pyrrolidin-2-one] | 6.5 µM
35 | CCN(Cc1nc2c(N)nc3ccc(-n4cccn4)cc3c2[nH]1)C(C)=O [Compound 207] | 73 µM
36 | CCN(Cc1nc2c(N)nc3cc(C(F)(F)F)ccc3c2n1CCCC(=O)NC)C(=O)OC(C)(C)C [Compound 226] | 85 µM
37 | CCN(Cc1nc2c(N)nc3cc(-c4cc[nH]n4)ccc3c2[nH]1)C(=O)OC(C)(C)C [Compound 109, tert-Butyl ((4-amino-7-(1H-pyrazol-3-yl)-1H-imidazo[4,5-c]quinolin-2-yl)methyl)(ethyl)carbamate] | 0.88 µM
38 | Nc1nc2cc(C(F)(F)F)ccc2c2[nH]c(CN3CCCC3=O)nc12 [Compound 163] | 48.4 µM
39 | CCN(Cc1nc2c(N)nc3cc(Cl)ccc3c2n1CCCC(=O)N1CCN(C)CC1)C(C)=O [Compound 221] | 85 µM
40 | Nc1nc2cc(-c3ccccc3)ccc2c2[nH]c(CN3CCCC3=O)nc12 [Compound 280, 1-[(4-amino-7-phenyl-1H-imidazo[4,5-c]quinolin-2-yl)methyl]pyrrolidin-2-one] | 0.22 µM
41 | CCNCc1nc2c(N)nc3cc(Br)ccc3c2[nH]1 [Compound 225] | 10.9 µM
42 | CCN(Cc1nc2c(N)nc3cc(-c4cccnc4F)ccc3c2[nH]1)C(C)=O [Compound 175, N-[[4-amino-7-(2-fluoropyridin-3-yl)-1H-imidazo[4,5-c]quinolin-2-yl]methyl]-N-ethylacetamide] | 2.6 µM
43 | CCN(Cc1nc2c(N)nc3ccc(Br)cc3c2[nH]1)C(=O)OC [Compound 200] | 11.9 µM
